Experimental data taken from ChEMBL document CHEMBL1148929, “Phytochemical studies on Stemona burkillii prain: two new dihydrostemofoline alkaloids” (J Nat Prod, 2004).

Assays:
[1] = tested on: Cladosporium cladosporioides; assay: Antifungal activity against Cladosporium cladosporioides assessed as inhibition of spore germination; assay type: functional, organism-based
[2] = tested on: Artemia; assay: Toxicity to brine shrimp; assay type: organism-based; conditions: in vivo

## CCCC[C@@]12C3CCN1[C@H]1C[C@H]2O[C@@]32O/C(=C3\OC(=O)C(C)=C3OC)[C@@H](C)[C@H]12 [STEMOFOLINE]
[1]
  EC50: > 219 ppm
[2]
  LC50: > 33 ppm

## CC[C@H](O)C[C@@]12[C@@H]3C[C@H]4[C@H]5[C@H](C)/C(=C6/OC(=O)C(C)=C6OC)O[C@]5(O3)[C@H]1CCN42 [2'-HYDROXYSTEMOFOLINE]
[1]
  EC50: > 219 ppm
[2]
  LC50: > 33 ppm
